Key:
histamine H2-receptor = details: cited from earlier work; for histamine H2-antagonist potency/effectiveness: compared with burimamide or metiamide
[1] = in vivo; cited from earlier work
gastric secretion = details: cited from earlier work
peptic ulcer disease = details: clinical evaluation; cited from earlier work
[2] = in vivo; cited from earlier work; remark: listed apart in the source
[3] = tested on: gastric secretion (Heidenhain pouch dog); test: Gastric antisecretory activity in the Heidenhain pouch dog; assay type: in vivo, dog (female); details: iv; for ED50: Canis lupus familiaris, histamine infusion
Experimental: Prior to surgery, hematology and blood chemistry profiles are obtained and an assessment made as to the general health of selected female dogs. Dogs are vaccinated with Tissue Vax 5 (DHLP--Pitman-Moore) and housed in general animal quarters for four weeks' observation so incipient diseases may become apparent. Dogs are fasted with water ad libitum 24 hours prior to surgery.
Anesthesia is induced with Sodium Pentothal (Abbott) 25-30 mg/kg iv. Subsequent anesthesia is maintained with methoxyflurane (Pitman-Moore). A mid-line linea alba incision from xiphoid to umbilicus provides good exposure and ease of closure. The stomach is pulled up into the operative field, the greater curvature stretched out at multiple points and clamps placed along the selected line of incision. The pouch is made from the corpus of the stomach so that true parietal cell juice is obtained. About 30% of the corpus volume is resected. […]
Ninety minutes' infusion are allowed for the dogs to reach a steady state of acid output. […] Each sample is measured to the nearest 0.5 ml and titratable acidity is determined by titrating a 1 ml sample to pH 7.0 with 0.2N NaOH, using an Autoburet and an electrometric pH meter (Radiometer). Titratable acid output is calculated in microequivalents by multiplying the volume in milliliters by the acid concentration in milliequivalents per liter.
Results are expressed as percent inhibition relative to control readings and the response is the average for five days at that dose level.

[4] = tested on: gastric secretion (gastric fistula rat); histamine H2-receptor; test: Gastric antisecretory activity in the gastric fistula rat; assay type: in vivo, rat (male Long Evans); details: sc; for Potency Ratio: relative to cimetidine = 1.0
Experimental: Male Long Evans rats weighing about 240-260 grams at the time of cannula implantation are used. […] The fistula components are designed and the operative procedure is carried out exactly as described in the above reference. Post operatively the animals are individually housed in solid bottom cages with sawdust and are allowed food and water ad libitum throughout the entire recovery period. Animals are not used for test purposes for at least 15 days after the operative procedure. The animals are fasted but allowed water ad libitum for 20 hours before the testing procedure is to begin. […] The catheter is then screwed into the cannula in place of the plugging screw and the rat is placed in a clear plastic rectangular cage measuring 40 cm long, 15 cm wide and 13 cm high. The bottom of the cage has a slit approximately 1.5 cm wide and 25 cm long running down the center to accommodate the catheter which hangs through it. […] Chem. Path. […] Gastric secretions collected during the first hour after washing the stomach are discarded as they may be contaminated. For oral evaluation, the catheter is then removed from the cannula and replaced with the plugging screw. […] After this time the plugging screw is removed and replaced with a catheter to which a small plastic vial has been attached to collect the gastric secretions. […] The secretions in the second sample are compared to those of the control sample in order to determine the effects of the test drug. […] Results are expressed as percent inhibition relative to control readings. Dose response curves are constructed and ED50 values are calculated by regression analyses. At least three rats are used at each dosage level and a minimum of three dosage levels are utilized for determination of a dose response curve.

SMILES	histamine H2-antagonist potency/effectiveness (histamine H2-receptor)	toxicity (agranulocytosis) [2]	ED50 [3] [mg/kg]	ED50 [4] [µmol/kg]	Potency Ratio [4]	further results
CNC(=S)NCCCCc1cnc[nH]1 [Burimamide]						clinical effectiveness as histamine H2-receptor antagonist (histamine H2-receptor; clinical): first clinically effective; oral absorption [1]: poor; inhibition of gastric secretion (gastric secretion; animals, including man): inhibits gastric secretion in animals, including man
CN=C(NC#N)NCCSCc1[nH]cnc1C [Cimetidine]	as effective an histamine H2 -antagonist as metiamide	without producing agranulocytosis				therapeutic effect in peptic ulcer disease (peptic ulcer disease): effective therapeutic agent in the treatment of peptic ulcer disease
Nc1nonc1NCCCOc1cccc(CN2CCCCC2)c1 [Example 1, 3-Amino-4-[3-(3-piperidinomethylphenoxy)propylamino]-1,2,5-oxadiazole]			0.03	0.18	19.3	Potency Ratio ([3]; relative to ranitidine = 1.0): 1.8
CN(C)Cc1ccc(CSCCNc2nonc2N)o1 [Example 2, 3-Amino-4-{2-[(5-dimethylaminomethyl-2-furyl)methylthio]ethylamino}-1,2,5-oxadiazole]				5	0.70	
CNC(=S)NCCSCc1[nH]cnc1C [Metiamide]	more potent than burimamide	toxicity (agranulocytosis)				oral activity in man (gastric secretion; oral, man): orally active in man
CNC(=C[N+](=O)[O-])NCCSCc1ccc(CN(C)C)o1 [Ranitidine]			0.054			

— patent publication US4507485A, “3,4-Disubstituted-1,2,5-oxadiazoles having histamine H2 -receptor antagonist activity” (Bristol-Myers Company, priority 1984, dated 1985)
